Measured values from US20260216170A1, “TETRAHYDROISOQUINOLINE HETEROBIFUNCTIONAL BCL-XL DEGRADERS” (Treeline Biosciences, Inc., priority 2023, published 2026).

Biological target: T1, Human BCL-XL protein (N-terminal HiBiT tagged BCL-XL expressed in HT1080 cells) (Homo sapiens, UniProt Q07817)
T1 construct: expressed in transfected cells; host or cells: HT-1080 (ATCC CCL-121), stably transduced with lentivirus pLV-UBC-N-HiBiT-BCL-XL-PGK-puro and selected with puromycin
Experiment: HiBiT Based Degradation Assay
Assay type: cell-based
Conditions: 24 hours incubation; for DC50: BCL-XL degradation, HT1080 cells expressing N-HiBiT-BCL-XL, normalized with DMSO control, geometric mean for multiple data points, read-out: EC50 (24 h); for Ymin (24 h): bottom of BCL-XL degradation curve (remaining HiBiT-BCL-XL signal vs DMSO control), HT1080 cells
Text: HiBiT Based Degradation Assay
Human BCL-XL protein coding open reading frame fused with N-terminal HiBiT coding sequence (N-HiBiT-BCL-XL) was synthesized from Integrated DNA Technologies (IDT). Next, N-HiBiT-BCL-XL sequence was cloned into pLV-UBC-PGK-Puro, a lentivirus plasmid purchased from Vectorbuilder, to generate pLV-UBC-N-HiBiT-BCL-XL-PGK-puro. Lentiviral particles were generated from Lenti-X™ 293T cells (Clontech) by co-transfection of pLV-UBC-N-HiBiT-BCL-XL-PGK-puro plasmids and lentiviral packaging plasmid mix (Cellecta). HT-1080 [HT1080](ATCC CCL-121™) cells were infected with the lentivirus, and HT1080 cells stably integrated with the lentiviral vector were established by incubation with 1 μg/mL puromycin (Thermofisher). HT1080 cells expressing N-terminal HiBiT tagged BCL-XL were dispensed into 384-well plates pre-spotted with compounds at varying concentrations. Three thousand cells were seeded into each well in 40 μL of RPMI 1640 media. After 24 hours of incubation at 37° C. with 5% CO2, 30 μL of the NANO-GLO® HiBiT Lytic Detection System working solution (Promega) was added to each well and incubated at room temperature for 30 min. After incubation, luminescence was read on a PHERAstar FSX Plate Reader (BMG). BCL-XL degradation at each indicated concentration was normalized with DMSO control. The BCL-XL degradation curves were plotted using a four-parameter logistic model. For compounds displaying hook effects, curve fitting was performed using bottom point of hook curves (i.e., the point of Ymin) as bottom plateau to calculate EC50. For compounds with multiple data points, the geometric mean is presented.

T1 sequence (Q07817 whole entry): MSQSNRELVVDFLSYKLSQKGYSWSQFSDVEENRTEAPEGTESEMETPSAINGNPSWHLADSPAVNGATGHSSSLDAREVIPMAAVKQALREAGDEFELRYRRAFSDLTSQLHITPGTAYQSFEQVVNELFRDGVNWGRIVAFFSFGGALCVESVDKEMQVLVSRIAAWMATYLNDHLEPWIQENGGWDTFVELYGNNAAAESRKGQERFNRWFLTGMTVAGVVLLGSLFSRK

SMILES | DC50 [µM] | Ymin (24 h)
Cc1cc(O[C@@H](C)CCC2CCN(CC(=O)Nc3ccc4c(C5CCC(=O)NC5=O)nn(C)c4c3)CC2)ccc1-c1ccc(N2CCc3ccnc(C(=O)Nc4nc5ccccc5s4)c3C2)nc1C(=O)O (single isomer, unassigned) [Compound 133b] | 0.01 to 0.1 | A (Ymin < 30%)
Cc1c(OC[C@@H]2C[C@H]2CC2CCN(CC(=O)Nc3ccc4c(C5CCC(=O)NC5=O)nn(C)c4c3)CC2)cccc1-c1ccc(N2CCc3cccc(C(=O)Nc4nc5ccccc5s4)c3C2)nc1C(=O)O (single isomer, unassigned) [Compound 1004b] | 0.01 to 0.1 | B (30% ≤ Ymin < 50%)
Cc1cc(OCCCCC2CCN(CC(=O)Nc3ccc4c(C5CCC(=O)NC5=O)nn(C)c4c3)CC2)ccc1-c1ccc(N2CCc3cccc(C(=O)Nc4nc5ccccc5s4)c3C2)nc1C(=O)O (stereo not drawn) [Compound 116, 6-[8-(1,3-benzothiazol-2-ylcarbamoyl)-3,4-dihydro-1H-isoquinolin-2-yl]-3-[4-[4-[1-[2-[[3-(2,6-dioxo-3-piperidyl)-1-methyl-indazol-6-yl]amino]-2-oxo-ethyl]-4-piperidyl]butoxy]-2-methyl-phenyl]pyridine-2-carboxylic acid] | < 0.01 | B (30% ≤ Ymin < 50%)
Cc1cc(OC[C@@H](C)CC2CCN(CC(=O)Nc3ccc4c(C5CCC(=O)NC5=O)nn(C)c4c3)CC2)ccc1-c1ccc(N2CCc3ccnc(C(=O)Nc4nc5ccccc5s4)c3C2)nc1C(=O)O (single isomer, unassigned) [Compound 140b] | 0.01 to 0.1 | A (Ymin < 30%)

The remaining lines, values ahead:

DC50 [µM] | Ymin (24 h) | SMILES
< 0.01 | B (30% ≤ Ymin < 50%) | Cc1c(OC2CC3(CCN(CC(=O)Nc4ccc5c(C6CCC(=O)NC6=O)nn(C)c5n4)CC3)C2)cccc1-c1ccc(N2CCc3cccc(C(=O)Nc4nc5ccccc5s4)c3C2)nc1C(=O)O (stereo not drawn) [Compound 194, 6-(8-(benzo[d]thiazol-2-ylcarbamoyl)-3,4-dihydroisoquinolin-2(1H)-yl)-3-(3-((7-(2-((3-(2,6-dioxopiperidin-3-yl)-1-methyl-1H-pyrazolo[3,4-b]pyridin-6-yl)amino)-2-oxoethyl)-7-azaspiro[3.5]nonan-2-yl)oxy)-2-methylphenyl)picolinic acid]
0.01 to 0.1 | B (30% ≤ Ymin < 50%) | C[C@@H]1CC(CCCOc2cccc(-c3ccc(N4CCc5cccc(C(=O)Nc6nc7ccccc7s6)c5C4)nc3C(=O)O)c2C(F)(F)F)CCN1CC(=O)Nc1ccc2c(C3CCC(=O)NC3=O)nn(C)c2c1 (stereo partly drawn) [Compound 215d]
< 0.01 | B (30% ≤ Ymin < 50%) | Cc1c(OC2CC3(CCN(CC(=O)Nc4ccc5c(C6CCC(=O)NC6=O)nn(C)c5n4)CC3)C2)cccc1-c1ccc(N2CCc3ccnc(C(=O)Nc4nc5ccccc5s4)c3C2)nc1C(=O)O (stereo not drawn) [Compound 207, 6-[8-(1,3-benzothiazol-2-ylcarbamoyl)-3,4-dihydro-1H-2,7-naphthyridin-2-yl]-3-[3-[[7-[2-[[3-(2,6-dioxo-3-piperidyl)-1-methyl-pyrazolo[3,4-b]pyridin-6-yl]amino]-2-oxo-ethyl]-7-azaspiro[3.5]nonan-2-yl]oxy]-2-methyl-phenyl]pyridine-2-carboxylic acid]
0.01 to 0.1 | B (30% ≤ Ymin < 50%) | COc1c(NC(=O)CN2CCC(CCCOc3cccc(-c4ccc(N5CCc6cccc(C(=O)Nc7nc8ccccc8s7)c6C5)nc4C(=O)O)c3F)CC2)ccc2c(C3CCC(=O)NC3=O)nn(C)c12 (stereo not drawn) [Compound 200]
< 0.01 | B (30% ≤ Ymin < 50%) | Cn1nc(C2CCC(=O)NC2=O)c2ccc(NC(=O)CN3CCC4(CC3)CC(Oc3cccc(-c5ccc(N6CCc7cccc(C(=O)Nc8nc9ccccc9s8)c7C6)nc5C(=O)O)c3C(F)(F)F)C4)c(F)c21 (stereo not drawn) [Compound 188, 6-(8-(benzo[d]thiazol-2-ylcarbamoyl)-3,4-dihydroisoquinolin-2(1H)-yl)-3-(3-((7-(2-((3-(2,6-dioxopiperidin-3-yl)-7-fluoro-1-methyl-1H-indazol-6-yl)amino)-2-oxoethyl)-7-azaspiro[3.5]nonan-2-yl)oxy)-2-(trifluoromethyl)phenyl)picolinic acid]
